Measured values taken from PMC10397409, “The action of physiological and synthetic steroids on the calcium channel CatSper in human sperm” (Frontiers in Cell and Developmental Biology, 2023).
Read-outs that look alike come from different tables or passages of the source.

Assays:
CatSper [1] = molecular target: T1, CatSper (Homo sapiens, UniProt Q7RTX7+Q86XQ3+Q8NEC5+Q96P56); design: method as in Carlson et al., 2022b; conditions: ref Carlson et al., 2022b; read-out: IC50 inhibiting P4-induced response; cited from earlier work
T1 construct: Motile spermatozoa were selected by a ‘swim-up’ procedure; endogenous in cells; host or cells: motile human spermatozoa (swim-up) from healthy donors

CatSper [2] = molecular target: T1, CatSper; assay: Steroid-induced increase in [Ca2+]i in human sperm (Fluo-4 HTS assay, screen 1 activators); type: cell-based; conditions: for Emax: maximal amplitude of steroid-induced [Ca2+]i increase, relative to P4, 3 independent experiments, read-out: Max amplitude (%) (± SD)
Experimental: (§1) Briefly, motile spermatozoa were selected by swim-up and labeled with the fluorescent calcium indicator Fluo-4 a.m. to image changes in [Ca^2+]i. After centrifugation to remove excess dye, Fluo-4 AM loaded cells were distributed in a 384-wells plate to obtain ∼125,000 cells/well. After measuring basal fluorescence, a first injection of compounds was performed in order to evaluate their effect on [Ca^2+]i alone. This first screen is therefore considered as a screen to search for ‘activators’. Fluorescence was recorded for 12 min during which sperm cells were continuously exposed to compounds. P4 or PGE1 were then added in the same wells to evaluate whether the tested compounds can reduce the ligand-induced activation of CatSper. This second screen was therefore considered to be a search for CatSper ‘inhibitors’.
Human semen samples were collected from healthy donors by masturbation after a recommended sexual abstinence period of minimum 2 days. Semen samples were allowed to liquefy at 37°C for 15–30 min. […] Motile sperm were allowed to swim at 37°C for 1 hour. The supernatant was collected in 15 mL Falcon tubes and washed twice by centrifugation at 700 x g for 20 min. Sperm were supplemented with 3 mg/mL HSA.
20 μL of cells (corresponding to ∼125,000 cells) loaded with Fluo-4 a.m. were dispensed in a 384-wells plate (Corning, NY, United States) to allow fluorescence measurement. The dye was excited at 480 nm, and emission was recorded at 530 nm. The change in [Ca^2+]i was assessed simultaneously in all wells using a Functional Drug Screening System (FDSS/μCELL) (Hamamatsu Phototonics K.K., Yokohama, Japan) at 37°C. Basal fluorescence was first measured for 30 s. […] P4 and PGE1 were tested at a near-saturating concentration in the HTS in order to evaluate a potential additive or synergistic effect induced by the compounds. […] For alkalization-induced Ca^2+ measurement, NH4Cl was used as a positive control at a final concentration of 10 mM. […] The Prestwick library was tested in technical duplicate. Ca^2+ response curves were normalized using the following formula F−F0/F0×100 , where F 0 is the average of the basal fluorescence prior to the addition of the compound of interest and F corresponds to the fluorescence value at each time point. The ∆F/F0 of the vehicle control (DMSO) was subtracted from all the other values to adjust for dilution and pipetting artifacts. The values of all compounds were normalized to their respective controls.
Data are shown as mean ± standard deviation (SD) with “n” referring to the number of independent experiments performed using sperm samples from ≥3 different donors. Statistical analysis and fitting of dose-response relations were performed using GraphPad Prism 8.1.1 (Prism, La Jolla, United States). To generate sigmoidal curves, the concentrations were converted to their respective log values, and the data were normalized using the following formula: 100⋅x/Fmax , where Fmax is the maximum value of the positive control. A four-parameter Hill equation with a variable Hill coefficient was fitted to generate the EC02, EC50, and IC50. Statistical significance between control and treated conditions was evaluated using a one-way analysis of variance (ANOVA), followed by Dunnett´s test. A p-value <0.05 was considered significant.

CatSper [3] = molecular target: T1, CatSper; assay: Inhibition of P4-induced Ca2+ influx in human sperm (screen 2 inhibitors); type: cell-based; conditions: for Max P4 inhibition (%) (± SD): 3 independent experiments
Experimental: as §1
(§2) Human semen samples were collected from healthy donors by masturbation after a recommended sexual abstinence period of minimum 2 days. Semen samples were allowed to liquefy at 37°C for 15–30 min. Motile spermatozoa were selected by a ‘swim-up’ procedure as previously described ([Strünker et al., 2011]). Briefly, 1 mL of semen was deposited in a 45°-inclined 50 mL Falcon tube with 4 mL of Human Tubular Fluid (HTF) medium containing: 93.8 mM NaCl, 4.7 mM KCl, 0.2 mM MgSO4, 0.37 mM KH2PO4, 2.04 mM CaCl2, 20.98 mM HEPES, 2.78 mM glucose, 21.4 mM Na-lactate, 4 mM NaHCO3, 0.33 mM Na-pyruvate, and the pH was adjusted to 7.35. Motile sperm were allowed to swim at 37°C for 1 hour. The supernatant was collected in 15 mL Falcon tubes and washed twice by centrifugation at 700 x g for 20 min. Sperm were supplemented with 3 mg/mL HSA. Written informed consent was obtained from all donors prior to donation and approved by the Cantonal Ethics Committee of the State of Geneva (CCER #14-147).
(§3) Cells were loaded with the fluorescent Ca^2+ indicator Fluo-4 AM at a final concentration of 2.5 µM for 30 min at 37°C. Excess dye was washed via centrifugation at 700 x g for 20 min and sperm were resuspended in HTF medium to obtain a final concentration of 6.25 x 10^6 cells/mL. 20 μL of cells (corresponding to ∼125,000 cells) loaded with Fluo-4 a.m. were dispensed in a 384-wells plate (Corning, NY, United States) to allow fluorescence measurement. The dye was excited at 480 nm, and emission was recorded at 530 nm. The change in [Ca^2+]i was assessed simultaneously in all wells using a Functional Drug Screening System (FDSS/μCELL) (Hamamatsu Phototonics K.K., Yokohama, Japan) at 37°C. Basal fluorescence was first measured for 30 s. […] P4 and PGE1 were tested at a near-saturating concentration in the HTS in order to evaluate a potential additive or synergistic effect induced by the compounds. Non-specific CatSper inhibitor MDL 12330A was used as a negative control at final concentration of 20 µM while DMSO was used as a vehicle control. For alkalization-induced Ca^2+ measurement, NH4Cl was used as a positive control at a final concentration of 10 mM. Fluorescence was recorded for a total of 16.5 min: 30 s before injection, 12 min after the first injection of the tested compounds, and 4 min after the second injection of either P4 or PGE1. The Prestwick library was tested in technical duplicate. Ca^2+ response curves were normalized using the following formula F−F0/F0×100 , where F 0 is the average of the basal fluorescence prior to the addition of the compound of interest and F corresponds to the fluorescence value at each time point. The ∆F/F0 of the vehicle control (DMSO) was subtracted from all the other values to adjust for dilution and pipetting artifacts. The values of all compounds were normalized to their respective controls.

CatSper [4] = molecular target: T1, CatSper; assay: Inhibition of PGE1-induced Ca2+ influx in human sperm (screen 2 inhibitors); type: cell-based; conditions: PGE1-induced response; pooled from 3 independent experiments; read-out: Mean IC50 (PGE1) µM (±SD)
Experimental: as §1, §2, §3

human sperm = assay: Sperm penetration in viscous media (modified Kremer test); type: cell-based; conditions: steroids 10 µM, P4 5 µM, 1 h, 1% methylcellulose
Experimental: The ability of sperm to penetrate in viscous media similar in viscosity to that found in the female reproductive tract was assessed using the modified Kremer test, as previously described ([Rahban et al., 2021]). Briefly, swim-up recovered and capacitated sperm cells at 3 x 10^6/mL were incubated in the absence (DMSO) or presence of steroids (10 µM), or P4 (5 µM) as a positive control for 1 h at 37°C. A glass capillary (0.2 × 4.0 × 50 mm, CM scientific, UK) was filled with 1% (w/v) methylcellulose (MC, 4000 centipoises cP) prepared with HTF media supplemented with 3 mg/mL HSA, respective compounds (10 µM), P4 (5 µM), or DMSO. The glass capillary tube was then sealed on one end with wax (Vitrex, UK) and added to the sperm cells on the open end. Sperm penetration was assessed after 1 h of incubation at 37°C by counting sperm at 1 cm using a microscope with a ×10 objective.

[5] = pooled from 3 independent experiments, read-out: Mean EC50 µM (±SD)
[6] = P4-induced response, pooled from 3 independent experiments, read-out: Mean IC50 (P4) µM (±SD)

| SMILES | IC50 (CatSper [1]) | Emax (CatSper [2]) | EC50 (CatSper [2]; [5]) | Max P4 inhibition (%) (± SD) (CatSper [3]) | IC50 (CatSper [3]; [6]) | IC50 (CatSper [4]) | also measured |
| --- | --- | --- | --- | --- | --- | --- | --- |
| CC(=O)O[C@]1(C(C)=O)CC[C@H]2[C@@H]3C[C@H](C)C4=CC(=O)CC[C@]4(C)[C@H]3CC[C@@]21C [medroxyprogesterone acetate] | 6.6 µM | – | – | – | – | – | – |
| C[C@]12CC[C@@H]3c4ccc(OS(=O)(=O)O)cc4CC[C@H]3[C@@H]1CCC2=O [Estropipate] | – | 106% | 0.159 µM | 90 (±10) % | 0.28 µM | 0.282 µM | effective concentrations as low as (dose-dependent increase in [Ca2+]i) (CatSper [2]): 10 nM; EC50 (CatSper [2]; increase in [Ca2+]i, dose-response 90 µM to 0.3 nM, read-out: EC50 (±SD)): 0.161 µM; increase in [Ca2+]i (in words) (CatSper [2]; steroids 10 µM): highest increase in [Ca^2+]i; IC50 (CatSper [3]; inhibition of P4-induced Ca2+ response, dose-response 90 µM to 0.3 nM, read-out: IC50 (±SD)): 0.288 µM; number of sperm penetrating viscous medium at 1 cm (human sperm): significant increase in cell number |
| C#C[C@]1(O)CC[C@H]2[C@@H]3CCC4=CC(=O)CC[C@@H]4[C@H]3CC[C@@]21CC [levonorgestrel] | 32.3 µM | – | – | – | – | – | – |
| C[C@]12CCC(=O)C=C1CC[C@@H]1[C@@H]2[C@@H](O)C[C@]2(C=O)[C@@H](C(=O)CO)CC[C@@H]12 [aldosterone] | 33.1 µM | – | – | – | – | – | – |
| C#C[C@]1(O)CC[C@H]2[C@@H]3CCc4cc(O)ccc4[C@H]3CC[C@@]21C [ethinylestradiol] | – | 69% | 1.8 µM | 50 (±14) % | 3.36 µM | 6.68 µM | – |
| CC(=O)O[C@]1(C(C)=O)CC[C@H]2[C@@H]3C=C(C)C4=CC(=O)CC[C@@H]4[C@H]3CC[C@@]21C [nomegestrol acetate] | – | 19% | 22.7 µM | 12 (±17) % | 41.2 µM | 52 µM | – |
